Measured values taken from patent US9051311B2, “Sulfamide sodium channel inhibitors” (AMGEN INC., priority 2012, dated 2015).
Structures can show the parent of a compound that is named as a salt.

Assays:
Nav 1.7 [1] = target: T1, Nav 1.7 (Homo sapiens (Human), UniProt Q15858); assay: Nav 1.7 IonWorks Quattro (IWQ) in vitro assay, population patch-clamp; format: cell-based; conditions: 293 cells stably transfected with Nav 1.7; block at 26th pulse to −20 mV;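 note: cells held at −110 mV for 3 s, then 26 pulses of 150 ms at 5 Hz, leak-corrected peak current, percent block measured before and after compound, 3–8 min exposure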
Procedure: (§1) Nav 1.7 and Nav 1.5 Ion Works Quattro (IWQ) In Vitro Assays
(§2) 293 cells stably transfected with either Nav 1.7 or with Nav 1.5 were recorded in population patch-clamp mode with the IonWorks® Quattro automated electrophysiology system in accordance with the manufacturer's specifications (Molecular Devices, LLC, Sunnyvale, Calif.). Sodium channel currents were measured in response to a train of depolarizations that induced successively greater inactivation.
(§3) Cells were held at −110 mV for three seconds (Nav 1.7) or half a second (Nav 1.5) from a holding voltage of −15 mV, then put through a series of 26 pulses of 150 msec duration to −20 mV at a frequency of 5 Hz. Cells were then left unclamped for a period of 3 to 8 minutes while a single concentration of test compound was added. Cells were then reclamped and put through the same voltage protocol. Current at the end of the 26th pulse to −20 mV was subtracted from the peak current evoked by the 26th pulse to −20 mV to correct for leak current. Percent block was calculated for each concentration in duplicate, and IC50 curves were fitted to percent block as a function of concentration.

Nav 1.7 [2] = target: T1, Nav 1.7; assay: Nav 1.7 in vitro PatchExpress (PX) assay, whole cell voltage clamp; format: cell-based; conditions: 293 cells stably transfected with human Nav1.7; partially inactivated state (20 to 50% inactivation)
Procedure: Nav 1.7 In Vitro PatchExpress (PX) Assay
293 cells stably transfected with human Nav1.7 were recorded in whole cell voltage clamp mode with the PatchXpress automated electrophysiology system (Molecular Devices, LLC, Sunnyvale, Calif.). Compound effects were measured on a partially inactivated state of the sodium channel. Cells were clamped to a holding potential yielding 20 to 50% inactivation. To elicit sodium current, channels were activated by pulsing to −10 mV for 20 msec. This voltage protocol was repeated at a rate of 0.1 Hz throughout the experiment. A single concentration of test compound was applied to cells for a duration of 3 minutes. Peak sodium current was measured at the end of the compound addition period to determine percent inhibition.

Nav 1.5 [3] = target: T2, Nav 1.5 (Homo sapiens (Human), UniProt Q14524); assay: Nav 1.5 IonWorks Quattro (IWQ) in vitro assay, population patch-clamp; conditions: read-out: Nav 1.5 (IWQ) IC50; 293 cells stably transfected with Nav 1.5; block at 26th pulse to −20 mV;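 note: HEK293 cells stably expressing Nav1.5, sodium current at the 26th of 26 pulses to −20 mV (150 ms, 5 Hz) after compound versus before, leak-corrected, 3–8 min exposure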
Procedure: as §1, §2, §3

Nav 1.5 [4] = target: T2, Nav 1.5; assay: cell-based
Procedure: as §1, §2, §3

T1 sequence (Q15858 whole entry): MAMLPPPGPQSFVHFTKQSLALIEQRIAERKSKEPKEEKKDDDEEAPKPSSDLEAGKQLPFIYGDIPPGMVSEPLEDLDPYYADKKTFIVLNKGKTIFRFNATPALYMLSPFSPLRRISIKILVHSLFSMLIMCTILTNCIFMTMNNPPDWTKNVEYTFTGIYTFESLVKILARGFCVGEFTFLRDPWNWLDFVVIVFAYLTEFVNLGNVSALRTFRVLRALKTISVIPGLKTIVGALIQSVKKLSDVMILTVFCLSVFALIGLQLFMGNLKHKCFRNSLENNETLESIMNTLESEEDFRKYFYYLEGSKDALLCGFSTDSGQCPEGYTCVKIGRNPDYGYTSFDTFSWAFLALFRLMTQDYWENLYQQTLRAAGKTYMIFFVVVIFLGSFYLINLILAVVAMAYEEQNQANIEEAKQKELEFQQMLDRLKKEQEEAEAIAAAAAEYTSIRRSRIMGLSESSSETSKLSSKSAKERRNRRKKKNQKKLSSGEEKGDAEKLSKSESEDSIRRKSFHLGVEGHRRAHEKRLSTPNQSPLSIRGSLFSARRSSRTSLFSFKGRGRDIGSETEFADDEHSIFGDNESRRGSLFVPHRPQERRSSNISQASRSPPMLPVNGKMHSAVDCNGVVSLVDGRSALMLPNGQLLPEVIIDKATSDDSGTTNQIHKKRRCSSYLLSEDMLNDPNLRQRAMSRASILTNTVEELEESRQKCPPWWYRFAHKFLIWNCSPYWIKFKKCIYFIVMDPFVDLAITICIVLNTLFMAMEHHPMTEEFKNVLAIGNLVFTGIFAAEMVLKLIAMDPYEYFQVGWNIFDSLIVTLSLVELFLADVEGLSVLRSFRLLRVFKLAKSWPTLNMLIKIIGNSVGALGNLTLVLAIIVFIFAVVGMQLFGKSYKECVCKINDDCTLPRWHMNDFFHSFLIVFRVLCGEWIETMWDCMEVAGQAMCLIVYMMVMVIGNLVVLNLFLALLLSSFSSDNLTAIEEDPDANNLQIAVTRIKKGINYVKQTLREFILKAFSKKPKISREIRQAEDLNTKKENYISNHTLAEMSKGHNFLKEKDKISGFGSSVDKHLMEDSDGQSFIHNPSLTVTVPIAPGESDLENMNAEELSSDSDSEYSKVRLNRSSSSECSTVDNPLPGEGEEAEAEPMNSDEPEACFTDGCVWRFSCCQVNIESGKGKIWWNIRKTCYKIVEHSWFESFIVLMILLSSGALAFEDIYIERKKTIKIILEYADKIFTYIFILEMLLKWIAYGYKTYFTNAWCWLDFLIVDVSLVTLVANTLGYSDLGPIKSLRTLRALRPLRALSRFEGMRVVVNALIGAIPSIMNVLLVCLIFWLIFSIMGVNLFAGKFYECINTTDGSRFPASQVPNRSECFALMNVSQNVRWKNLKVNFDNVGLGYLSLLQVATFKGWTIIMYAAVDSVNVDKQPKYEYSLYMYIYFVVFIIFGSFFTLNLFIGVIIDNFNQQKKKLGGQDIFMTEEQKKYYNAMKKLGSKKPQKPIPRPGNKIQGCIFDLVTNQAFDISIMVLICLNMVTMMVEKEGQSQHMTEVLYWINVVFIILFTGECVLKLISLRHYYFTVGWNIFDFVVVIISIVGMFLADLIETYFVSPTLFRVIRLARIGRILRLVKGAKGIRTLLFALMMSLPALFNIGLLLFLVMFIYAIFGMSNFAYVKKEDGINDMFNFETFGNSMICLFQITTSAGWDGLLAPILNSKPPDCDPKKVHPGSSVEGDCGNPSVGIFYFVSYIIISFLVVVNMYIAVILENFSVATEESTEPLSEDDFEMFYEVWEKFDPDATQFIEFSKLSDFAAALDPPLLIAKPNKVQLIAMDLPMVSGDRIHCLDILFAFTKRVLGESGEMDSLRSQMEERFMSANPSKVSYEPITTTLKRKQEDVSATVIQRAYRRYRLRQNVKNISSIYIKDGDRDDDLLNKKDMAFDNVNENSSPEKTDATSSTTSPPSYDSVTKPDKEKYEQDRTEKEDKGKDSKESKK
T2 sequence (Q14524 whole entry): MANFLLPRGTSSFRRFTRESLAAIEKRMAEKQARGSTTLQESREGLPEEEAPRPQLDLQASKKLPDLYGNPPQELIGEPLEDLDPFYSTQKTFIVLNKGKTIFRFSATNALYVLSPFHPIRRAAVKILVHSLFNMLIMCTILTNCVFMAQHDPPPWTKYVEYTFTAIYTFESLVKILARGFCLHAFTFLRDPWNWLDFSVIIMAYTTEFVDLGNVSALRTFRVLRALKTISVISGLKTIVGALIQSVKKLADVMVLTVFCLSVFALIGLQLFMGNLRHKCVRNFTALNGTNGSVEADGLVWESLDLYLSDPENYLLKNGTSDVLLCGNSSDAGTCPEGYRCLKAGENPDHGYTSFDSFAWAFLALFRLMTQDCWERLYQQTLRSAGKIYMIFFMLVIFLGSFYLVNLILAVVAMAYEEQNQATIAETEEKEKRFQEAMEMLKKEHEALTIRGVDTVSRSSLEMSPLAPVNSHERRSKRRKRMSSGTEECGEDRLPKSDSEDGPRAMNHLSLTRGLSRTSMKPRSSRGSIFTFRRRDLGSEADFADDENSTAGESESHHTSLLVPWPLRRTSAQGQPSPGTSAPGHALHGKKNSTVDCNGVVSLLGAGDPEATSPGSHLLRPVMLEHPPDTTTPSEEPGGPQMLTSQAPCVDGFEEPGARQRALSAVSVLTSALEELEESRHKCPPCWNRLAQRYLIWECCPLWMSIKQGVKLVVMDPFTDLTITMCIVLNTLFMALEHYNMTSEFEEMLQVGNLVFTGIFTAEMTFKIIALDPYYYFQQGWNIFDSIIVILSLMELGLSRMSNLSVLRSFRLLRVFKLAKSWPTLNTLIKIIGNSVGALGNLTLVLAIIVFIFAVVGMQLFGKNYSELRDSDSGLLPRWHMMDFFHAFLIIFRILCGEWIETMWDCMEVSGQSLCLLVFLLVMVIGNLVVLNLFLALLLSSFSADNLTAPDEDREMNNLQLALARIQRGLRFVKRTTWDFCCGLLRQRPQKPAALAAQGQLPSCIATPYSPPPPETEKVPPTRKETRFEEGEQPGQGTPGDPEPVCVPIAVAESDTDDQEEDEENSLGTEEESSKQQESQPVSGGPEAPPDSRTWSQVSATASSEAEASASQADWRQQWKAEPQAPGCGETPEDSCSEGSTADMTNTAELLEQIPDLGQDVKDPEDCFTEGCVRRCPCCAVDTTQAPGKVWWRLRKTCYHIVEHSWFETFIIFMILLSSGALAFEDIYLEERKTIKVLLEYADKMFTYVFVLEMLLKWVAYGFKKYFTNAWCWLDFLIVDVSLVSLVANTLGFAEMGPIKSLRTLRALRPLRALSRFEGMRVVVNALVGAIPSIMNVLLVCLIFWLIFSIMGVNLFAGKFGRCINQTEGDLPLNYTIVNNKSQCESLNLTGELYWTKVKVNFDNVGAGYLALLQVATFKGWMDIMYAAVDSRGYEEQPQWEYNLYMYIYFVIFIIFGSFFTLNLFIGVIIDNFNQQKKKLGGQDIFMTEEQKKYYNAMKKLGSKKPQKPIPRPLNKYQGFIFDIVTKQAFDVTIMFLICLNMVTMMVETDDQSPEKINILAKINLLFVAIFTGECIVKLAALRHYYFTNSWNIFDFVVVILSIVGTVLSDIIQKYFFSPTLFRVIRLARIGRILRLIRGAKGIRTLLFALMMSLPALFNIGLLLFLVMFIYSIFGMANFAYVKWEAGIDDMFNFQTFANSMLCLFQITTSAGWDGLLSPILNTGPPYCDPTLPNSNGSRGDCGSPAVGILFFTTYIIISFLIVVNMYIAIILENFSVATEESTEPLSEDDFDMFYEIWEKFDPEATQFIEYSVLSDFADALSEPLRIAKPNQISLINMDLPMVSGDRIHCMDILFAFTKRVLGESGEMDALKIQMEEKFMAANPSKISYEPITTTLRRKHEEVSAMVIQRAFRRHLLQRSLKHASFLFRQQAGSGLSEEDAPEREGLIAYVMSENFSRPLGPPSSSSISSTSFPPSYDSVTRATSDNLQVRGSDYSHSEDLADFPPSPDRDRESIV

Row | Compound | IC50 (Nav 1.7 [1]) [µM] | IC50 (Nav 1.7 [2]) [µM] | IC50 (Nav 1.5 [3]) [µM] | IC50 (Nav 1.5 [4]) [µM]
1 | O=S(=O)(Nc1ncns1)N1CCc2c(cccc2-c2ccc(Cl)cc2F)C1 [Example 11, 5-(4-Chloro-2-fluorophenyl)-N-(1,2,4-thiadiazol-5-yl)-3,4-dihydroisoquinoline-2(1H)-sulfonamide] | 4.22 | 7.66 | > 10 | –
2 | O=S(=O)(Nc1nccs1)N1CCc2c(cccc2-c2ccc(C(F)(F)F)cc2C2=CCNCC2)C1 [Example 36, 5-(2-(1,2,3,6-Tetrahydropyridin-4-yl)-4-(trifluoromethyl)phenyl)-N-(thiazol-2-yl)-3,4-dihydroisoquinoline-2(1H)-sulfonamide hydrochloride] | 1.89 | 4.68 | – | > 10
3 | CC(C)(C)OC(=O)N1CC=C(c2cc(C(F)(F)F)ccc2-c2cccc3c2CCN(S(=O)(=O)Nc2ncns2)C3)CC1 [Example 5, tert-Butyl 4-(2-(2-(N-(1,2,4-thiadiazol-5-yl)sulfamoyl)-1,2,3,4-tetrahydroisoquinolin-5-yl)-5-(trifluoromethyl)phenyl)-5,6-dihydropyridine-1(2H)-carboxylate] | 1.03 | 1.7 | 5.63 | –
4 | O=S(=O)(Nc1ncns1)N1CCc2c(cccc2-c2ccc(C(F)(F)F)cc2)C1 [Example 7, N-(1,2,4-Thiadiazol-5-yl)-5-(4-(trifluoromethyl)phenyl)-3,4-dihydroisoquinoline-2(1H)-sulfonamide] | 1.64 | 5.8 | – | > 10
5 | O=S(=O)(Nc1ncns1)N1CCc2c(cccc2-c2ccc(C(F)(F)F)cc2-n2ccnc2)C1 [Example 32, 5-(2-(1H-Imidazol-1-yl)-4-(trifluoromethyl)phenyl)-N-(1,2,4-thiadiazol-5-yl)-3,4-dihydroisoquinoline-2(1H)-sulfonamide] | 0.0258 | 0.22 | – | 6.68
6 | O=S(=O)(Nc1ncns1)N1CCc2c(cccc2-c2ccc(C(F)(F)F)cc2C2=CCNCC2)C1 [Example 6, 5-(2-(1,2,3,6-Tetrahydropyridin-4-yl)-4-(trifluoromethyl)phenyl)-N-(1,2,4-thiadiazol-5-yl)-3,4-dihydroisoquinoline-2(1H)-sulfonamide hydrochloride] | 0.0221 | 0.03 | > 10 | –
7 | O=S(=O)(Nc1ncc(F)s1)N1CCc2c(cccc2-c2ccc(C(F)(F)F)cc2C2=CCNCC2)C1 [Example 33, N-(5-Fluorothiazol-2-yl)-5-(2-(1,2,3,6-tetrahydropyridin-4-yl)-4-(trifluoromethyl)phenyl)-3,4-dihydroisoquinoline-2(1H)-sulfonamide hydrochloride] | 0.351 | 0.19 | – | > 10
8 | Cn1nccc1-c1cc(C(F)(F)F)ccc1-c1cccc2c1CCN(S(=O)(=O)Nc1nccs1)C2 [Example 3, 5-(2-(1-methyl-1H-pyrazol-5-yl)-4-(trifluoromethyl)phenyl)-N-(thiazol-2-yl)-3,4-dihydroisoquinoline-2(1H)-sulfonamide] | 0.414 | 2.01 | – | > 10
9 | COc1cc(C(F)(F)F)ccc1-c1ncnc2c1CCN(S(=O)(=O)Nc1ncns1)C2 [Example 61, 4-(2-methoxy-4-(trifluoromethyl)phenyl)-N-(1,2,4-thiadiazol-5-yl)-5,6-dihydropyrido[3,4-d]pyrimidine-7(8H)-sulfonamide] | 0.141 | 1.21 | – | > 10

Second part, led by results:

Row | IC50 (Nav 1.7 [1]) [µM] | IC50 (Nav 1.7 [2]) [µM] | Compound | IC50 (Nav 1.5 [3]) [µM] | IC50 (Nav 1.5 [4]) [µM]
10 | 10.5 | – | O=S(=O)(Nc1cnccn1)N1CCc2c(cccc2-c2ccc(C(F)(F)F)cc2C2=CCNCC2)C1 [Example 53, N-(Pyrazin-2-yl)-5-(2-(1,2,3,6-tetrahydropyridin-4-yl)-4-(trifluoromethyl)phenyl)-3,4-dihydroisoquinoline-2(1H)-sulfonamide hydrochloride] | > 10 | –
11 | 0.24 | 1.17 | CN1CC=C(c2cc(C(F)(F)F)ccc2-c2cccc3c2CCN(S(=O)(=O)Nc2ncc(F)s2)C3)CC1 [Example 39, N-(5-Fluorothiazol-2-yl)-5-(2-(1-methyl-1,2,3,6-tetrahydropyridin-4-yl)-4-(trifluoromethyl)phenyl)-3,4-dihydroisoquinoline-2(1H)-sulfonamide] | – | > 10
12 | 0.758 | 1.74 | O=S(=O)(Nc1ncns1)N1CCc2c(cccc2-c2ccc(C(F)(F)F)cc2N2CCOCC2)C1 [Example 31, 5-(2-Morpholino-4-(trifluoromethyl)phenyl)-N-(1,2,4-thiadiazol-5-yl)-3,4-dihydroisoquinoline-2(1H)-sulfonamide] | – | > 10
13 | 0.477 | 0.61 | O=S(=O)(Nc1ncns1)N1CCc2c(cccc2-c2ccc(C(F)(F)F)cc2Cl)C1 [Example 9, 5-(2-Chloro-4-(trifluoromethyl)phenyl)-N-(1,2,4-thiadiazol-5-yl)-3,4-dihydroisoquinoline-2(1H)-sulfonamide] | – | > 10
14 | 0.186 | 0.8 | O=S(=O)(Nc1ncns1)N1CCc2c(cccc2-c2ccc(C(F)(F)F)cc2-c2cncnc2)C1 [Example 23, 5-(2-(Pyrimidin-5-yl)-4-(trifluoromethyl)phenyl)-N-(1,2,4-thiadiazol-5-yl)-3,4-dihydroisoquinoline-2(1H)-sulfonamide] | – | > 10
